Laboratory results published in patent US9227919B2, “Arylalkylamine compounds as calcium sensing receptor modulators” (Lupin Limited, priority 2012, dated 2016).
Where a name gives a salt, the structure may show the parent alone.

Molecular target: T1, Calcium Sensing Receptor (CaSR) (Homo sapiens, UniProt P41180)
T1 construct: expressed in transfected cells
T1 sequence (P41180 20-1078): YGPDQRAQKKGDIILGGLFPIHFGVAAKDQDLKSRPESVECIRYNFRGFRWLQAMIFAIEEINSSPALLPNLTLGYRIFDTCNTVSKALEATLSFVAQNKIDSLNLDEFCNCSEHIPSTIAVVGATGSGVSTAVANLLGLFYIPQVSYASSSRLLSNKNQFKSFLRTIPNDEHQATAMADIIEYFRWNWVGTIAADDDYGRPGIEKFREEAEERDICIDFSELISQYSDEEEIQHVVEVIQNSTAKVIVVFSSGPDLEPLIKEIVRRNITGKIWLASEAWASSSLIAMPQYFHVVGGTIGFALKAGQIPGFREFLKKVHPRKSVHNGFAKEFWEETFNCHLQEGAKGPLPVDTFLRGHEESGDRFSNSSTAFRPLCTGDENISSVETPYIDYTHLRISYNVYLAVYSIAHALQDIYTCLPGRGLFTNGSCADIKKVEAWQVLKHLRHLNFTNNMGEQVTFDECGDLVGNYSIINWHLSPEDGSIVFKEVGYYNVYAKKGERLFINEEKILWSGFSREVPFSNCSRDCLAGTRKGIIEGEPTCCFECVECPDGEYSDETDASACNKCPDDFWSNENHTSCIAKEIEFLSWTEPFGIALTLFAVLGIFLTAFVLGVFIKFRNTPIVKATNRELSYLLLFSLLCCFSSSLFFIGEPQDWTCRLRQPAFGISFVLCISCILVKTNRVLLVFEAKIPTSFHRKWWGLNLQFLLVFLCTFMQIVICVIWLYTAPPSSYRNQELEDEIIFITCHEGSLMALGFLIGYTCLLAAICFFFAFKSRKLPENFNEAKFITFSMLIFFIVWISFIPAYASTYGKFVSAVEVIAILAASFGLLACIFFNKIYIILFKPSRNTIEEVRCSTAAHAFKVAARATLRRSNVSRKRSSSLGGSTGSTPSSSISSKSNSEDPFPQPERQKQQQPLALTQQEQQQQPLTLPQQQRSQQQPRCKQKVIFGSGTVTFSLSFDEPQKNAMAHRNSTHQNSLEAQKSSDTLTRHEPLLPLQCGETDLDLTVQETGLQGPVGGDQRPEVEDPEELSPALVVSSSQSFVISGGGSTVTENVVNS
Assay: In-vitro assay of calcimimetics through modulation of Calcium Sensing Receptor (intracellular calcium increase, FLIPR)
Format: cell-based
Conditions: stably transfected HEK293 cells expressing hCaSR; Fluo4NW dye; 0.3 mM CaCl2; 8-point assay; read-out: EC50 Range
Method: Certain illustrative compounds within the scope of the invention are screened for CaSR activity according to the procedure given below. The screening of the compounds may also be carried by other methods and procedures known to skilled in the art.
In-vitro assay method of Calcimimetics through modulation of Calcium Sensing Receptor (CaSR):
The ability of the compounds to modulate Calcium sensing receptor is determined by measuring an increase in intracellular calcium [Ca^2+]i. Stably transfected HEK293 cells expressing hCaSR_pTriEx-3 hygro vector are developed. Cells are grown overnight on a 96-well plate to 80% confluency in Ham's F12 containing 20% FBS at 37° C., 5% CO2. Subsequently, cells are washed extensively with 20 mM HEPES buffer containing 126 mM […], 1 mM MgCl2 and 4 mM KCl to remove serum components that might interfere with the assay. Cells are loaded with calcium sensing Fluo4NW dye in HEPES base buffer containing 0.1% BSA and lmg/ml glucose for 30 minutes to measure changes in intracellular calcium. The activities of the compounds are measured in FLIPR using 0.3 mM CaCl2 in 20 mM HEPES base buffer. The effectiveness of the compound to modulate receptor activity is determined by calculating the EC50 responses for that compound in an 8-point assay and plotted using GraphPad Prism 5.
The compounds prepared were tested using the above assay procedure and the results obtained are given below.

SMILES	EC50
Cc1ccc(N2CC(CCN[C@H](C)c3cccc4ccccc34)Cc3ccccc32)cc1C(=O)O (single isomer, unassigned) [Example 76b, hydrochloride]	20 to 50 nM
Cc1ccc(C2CC(CN[C@H](C)c3cccc4ccccc34)Cc3ccccc32)cc1C(=O)O (single isomer, unassigned) [Example 8d, hydrochloride]	20 to 50 nM
C[C@@H](NCC1Cc2ccccc2C(c2ccc(F)c(C(=O)O)c2)C1)c1cccc2ccccc12 (single isomer, unassigned) [Example 7c, hydrochloride]	20 to 50 nM
COc1cc([C@@H](C)NC[C@@H]2Cc3ccccc3C(c3ccc(C)c(C(=O)O)c3)C2)ccc1F (single isomer, unassigned) [Example 16b, hydrochloride]	20 to 50 nM
COc1cc([C@@H](C)NCC2Cc3ccccc3N(c3ccc(C)c(C(=O)O)c3)C2)ccc1F (single isomer, unassigned) [Example 73b, hydrochloride]	50 to 200 nM
Cc1ccc(N2CC(CCCN[C@H](C)c3cccc4ccccc34)Cc3ccccc32)cc1OCC(=O)O (single isomer, unassigned) [Example 80b, hydrochloride]	20 to 50 nM
Cc1ccc(C2C[C@H](CN[C@H](C)c3ccc(F)c4ccccc34)Cc3ccccc32)cc1C(=O)O (single isomer, unassigned) [Example 19b, hydrochloride]	20 to 50 nM
C[C@@H](NCC1Cc2ccccc2C(c2cccc(C(=O)O)c2)C1)c1cccc2ccccc12 (single isomer, unassigned) [Example 2c, hydrochloride]	20 to 50 nM
Cc1ccc(C(=O)O)cc1N1CC(CN[C@H](C)c2cccc3ccccc23)Cc2ccccc21 (single isomer, unassigned) [Example 70b, hydrochloride]	50 to 200 nM
Cc1ccc(C2CC(N[C@H](C)c3cccc4ccccc34)Cc3ccccc32)cc1C(=O)O (stereo partly drawn) [Example 22, 2-Methyl-5-(3-(((R)-1-(naphthalen-1-yl)ethyl)amino)-1,2,3,4-tetrahydronaphthalen-1-yl)benzoic acid hydrochloride]	20 to 50 nM
Cc1ccc(C2CC(CN[C@H](C)c3cccc4ccccc34)Cc3ccccc32)cc1C(=O)O (single isomer, unassigned) [Example 8c, hydrochloride]	50 to 200 nM
Cc1ccc(C2C[C@H](CCN[C@H](C)c3ccc(F)c4ccccc34)Cc3ccccc32)cc1C(=O)O (stereo partly drawn) [Example 25, 5-((3S)-3-(2-(((R)-1-(4-Fluoronaphthalen-1-yl)ethyl)amino)ethyl)-1,2,3,4-tetrahydronaphthalen-1-yl)-2-methylbenzoic acid hydrochloride]	20 to 50 nM
Cc1cc(C(=O)O)cc(C2CC(CN[C@H](C)c3cccc4ccccc34)Cc3ccccc32)c1 (single isomer, unassigned) [Example 9c, hydrochloride]	50 to 200 nM
C[C@@H](NCC1Cc2ccccc2C(c2cccc(C(=O)O)c2)C1)c1cccc2ccccc12 (single isomer, unassigned) [Example 2b, hydrochloride]	50 to 200 nM
Cc1cc(C2C[C@H](CN[C@H](C)c3cccc4ccccc34)Cc3ccccc32)ccc1C(=O)O (single isomer, unassigned) [Example 13b, hydrochloride]	< 20 nM
Cc1ccc(C2C[C@H](CCN[C@H](C)c3cccc4ccccc34)Cc3ccccc32)cc1C(=O)O (single isomer, unassigned) [Example 27a, hydrochloride]	< 20 nM
Cc1cc(C2CC(N[C@H](C)c3cccc4ccccc34)Cc3ccccc32)ccc1C(=O)O (stereo partly drawn) [Example 23, 2-Methyl-4-(3-(((R)-1-(naphthalen-1-yl)ethyl)amino)-1,2,3,4-tetrahydronaphthalen-1-yl)benzoic acid hydrochloride]	20 to 50 nM
Cc1ccc(C2CC(CN[C@H](C)c3cccc4ccccc34)Cc3ccccc32)cc1C(=O)O (single isomer, unassigned) [Example 8b, hydrochloride]	< 20 nM
Cc1cc(C(=O)O)cc(C2CC(CN[C@H](C)c3cccc4ccccc34)Cc3ccccc32)c1 (single isomer, unassigned) [Example 9b, hydrochloride]	20 to 50 nM
Cc1ccc(N2CC(CN[C@H](C)c3cccc4ccccc34)Cc3ccccc32)c(C)c1C(=O)O (single isomer, unassigned) [Example 71a, hydrochloride]	< 20 nM

Second part, the molecule after the results:

EC50	SMILES
< 20 nM	Cc1ccc(C2C[C@@H](CCCN[C@H](C)c3cccc4ccccc34)Cc3ccccc32)cc1C(=O)O (stereo partly drawn) [Example 31, 2-Methyl-5-((3R)-3-(3-(((R)-1-(naphthalen-1-yl)ethyl)amino)propyl)-1,2,3,4-tetrahydronaphthalen-1-yl)benzoic acid hydrochloride]
< 20 nM	C[C@@H](NCC1Cc2ccccc2C(c2cccc(C(=O)O)c2)C1)c1cccc2ccccc12 (single isomer, unassigned) [Example 2a, hydrochloride]
< 20 nM	Cc1ccc(C(=O)O)cc1C1C[C@H](CN[C@H](C)c2cccc3ccccc23)Cc2ccccc21 (single isomer, unassigned) [Example 14b, hydrochloride]
< 20 nM	C[C@@H](NCC1Cc2ccccc2C(c2ccc(F)c(C(=O)O)c2)C1)c1cccc2ccccc12 (single isomer, unassigned) [Example 7b, hydrochloride]
< 20 nM	COc1cc([C@@H](C)NC[C@@H]2Cc3ccccc3C(c3ccc(C)c(C(=O)O)c3)C2)ccc1F (single isomer, unassigned) [Example 16a, hydrochloride]
< 20 nM	C[C@@H](NCC1Cc2ccccc2C(c2ccc(F)c(C(=O)O)c2)C1)c1cccc2ccccc12 (single isomer, unassigned) [Example 7a, hydrochloride]
< 20 nM	Cc1ccc(C2CC(CN[C@H](C)c3cccc4ccccc34)Cc3ccccc32)cc1C(=O)O (single isomer, unassigned) [Example 8a, hydrochloride]
< 20 nM	Cc1ccc(C2C[C@H](CN[C@H](C)c3ccc(F)c4ccccc34)Cc3ccccc32)cc1C(=O)O (single isomer, unassigned) [Example 19a, hydrochloride]
< 20 nM	Cc1ccc(C2C[C@H](CCCN[C@H](C)c3ccc(F)c4ccccc34)Cc3ccccc32)cc1C(=O)O (stereo partly drawn) [Example 29, 5-((3S)-3-(3-(((R)-1-(4-fluoronaphthalen-1-yl)ethyl)amino)propyl)-1,2,3,4-tetrahydronaphthalen-1-yl)-2-methylbenzoic acid hydrochloride]
< 20 nM	Cc1ccc(N2CC(CN[C@H](C)c3cccc4ccccc34)Cc3cc(F)ccc32)cc1C(=O)O (single isomer, unassigned) [Example 75a, hydrochloride]
< 20 nM	Cc1c(C(=O)O)cccc1N1CC(CCCN[C@H](C)c2ccc(F)c3ccccc23)Cc2ccccc21 (single isomer, unassigned) [Example 79a, hydrochloride]
< 20 nM	Cc1ccc(N2CC(CCN[C@H](C)c3cccc4ccccc34)Cc3ccccc32)cc1OCC(=O)O (single isomer, unassigned) [Example 77b, hydrochloride]
< 20 nM	COc1cc([C@@H](C)NC[C@@H]2Cc3ccccc3C(c3ccc(C)c(C(=O)O)c3C)C2)ccc1F (stereo partly drawn) [Example 17, 3-((3S)-3-((((R)-1-(4-Fluoro-3-methoxyphenyl)ethyl)amino)methyl)-1,2,3,4-tetrahydronaphthalen-1-yl)-2,6-dimethylbenzoic acid hydrochloride]
< 20 nM	Cc1ccc(N2CC(CCCN[C@H](C)c3cccc4ccccc34)Cc3ccccc32)cc1C(=O)O (single isomer, unassigned) [Example 78b, hydrochloride]
